Data taken from US20220330549A1, “USE OF N-BENZYLBENZAMIDE-BASED COMPOUND AS HERBICIDE” (Northwest A&F University, priority 2020, published 2022).

Experiments:
Type in all cases: in vivo
Barnyard grass [1] = test: Herbicidal activity test for indoor pre-emergence soil treatment; set-up: key: level 1-9; higher = more weed remaining vs blank control; details: 150 g a.i./ha, visual inspection 21 days after treatment
Method in brief: (§1)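 Pre-emergence test following NY/T 1155.3-2006: weed seeds were sown in moistened neutral sandy loam (≤2% organic matter) and covered with 0.5–2.0 cm of soil. After 24 h, the soil was sprayed with a 10% EC diluted in water at 150 g(a.i.)/ha. Damage was scored visually on a 1–9 scale at 21 days.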

Piemarker [2] = test: as above; set-up: key: level 1-9; higher = more weed remaining vs blank control; details: 150 g a.i./ha, visual inspection 21 days after treatment
Method in brief: as §1

green bristlegrass [3] = test: as above; set-up: key: level 1-9; higher = more weed remaining vs blank control; details: 150 g a.i./ha, visual inspection 21 days after treatment
Method in brief: as §1

Amaranthus retroflexus [4] = test: as above; set-up: key: 1-9 levels; higher = more weed remaining vs blank control; details: 150 g a.i./ha, visual inspection 21 days after treatment
Method in brief: as §1

Digitaria sanguinalis [5] = test: as above; set-up: key: 1-9 levels; higher = more weed remaining vs blank control; details: 150 g a.i./ha, visual inspection 21 days after treatment
Method in brief: as §1

Humulus scandens [6] = test: as above; details: 150 g a.i./ha, visual inspection 21 days after treatment
Method in brief: as §1

Amaranthus retroflexus [7] = test: Herbicidal activity test for indoor post-emergence spraying on stems and leaves; set-up: key: grade level by weed remaining vs blank control, e.g. 5 = 10.1-15%; details: 150 g a.i./ha, visual inspection 21 days after treatment
Method in brief: (§2)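 Greenhouse-grown weeds, post-emergence foliar spray (NY/T 1155.4-2006 method); visual scoring at 21 d post-treatment as levels vs. untreated blank control (e.g., level 5 = 10.1–15%, level 8 = 35.1–67.5% of control weed).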

Barnyard grass [8] = test: as above; set-up: key: grade level by weed remaining vs blank control, e.g. 5 = 10.1-15%; details: 150 g a.i./ha, visual inspection 21 days after treatment
Method in brief: as §2

Digitaria sanguinalis [9] = test: as above; set-up: key: grade level by weed remaining vs blank control, e.g. 5 = 10.1-15%; details: 150 g a.i./ha, visual inspection 21 days after treatment
Method in brief: as §2

Humulus scandens [10] = test: as above; set-up: key: grade level by weed remaining vs blank control, e.g. 5 = 10.1-15%; details: 150 g a.i./ha, visual inspection 21 days after treatment
Method in brief: as §2

Piemarker [11] = test: as above; set-up: key: grade level by weed remaining vs blank control, e.g. 5 = 10.1-15%; details: 150 g a.i./ha, visual inspection 21 days after treatment
Method in brief: as §2

green bristlegrass [12] = test: as above; set-up: key: grade level by weed remaining vs blank control, e.g. 5 = 10.1-15%; details: 150 g a.i./ha, visual inspection 21 days after treatment
Method in brief: as §2

Broadleaf weed = test: Post-emergence herbicidal activity test in a paddy field; set-up: key: level scale; higher level = more weed left vs blank control; details: 150 g a.i./ha (penoxsulam control 250 g(a.i.)/h)
Method in brief: (§3)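 Efficacy was visually estimated 15 and 30 days after spraying, grading weed coverage relative to an untreated neighbouring plot (level 2 = 0 to 2.5%, level 9 = 67.6 to 100%). Treatments were 150 g(a.i.)/ha from 10% emulsifiable concentrates applied at the 4-5 leaf rice stage, four repeats of 50 m^2 each.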

Cyperaceae = test: as above; set-up: key: level scale; higher level = more weed left vs blank control; details: 150 g a.i./ha (penoxsulam control 250 g(a.i.)/h)
Method in brief: as §3

Gramineae = test: as above; set-up: key: level scale; higher level = more weed left vs blank control; details: 150 g a.i./ha (penoxsulam control 250 g(a.i.)/h)
Method in brief: as §3

Acalypha australis = test: Field test for weed control in a corn field; details: for Post-emergence weed control effect, Acalypha australis: 150 g a.i./ha, after treatment
Method in brief: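 Herbicidal activity against weeds was assessed in corn plots by the GB/T 17980.42-2000 method. Corn at the 2–5 leaf stage received water sprays of 10% emulsifiable concentrates at 150 g(a.i.)/ha, four repeats per treatment over 20 m^2. A 25% mesotrione oil dispersion was the reference. Damage symptoms and severity were rated on levels 1-9 relative to weeds in the blank control area.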

Amaranthus retroflexus [13] = test: Field test for weed control in a corn field; details: for Post-emergence weed control effect, Amaranthus retroflexus: 150 g a.i./ha, 30 days after treatment
Method in brief: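 Post-emergence control of Amaranthus retroflexus was assessed in corn plots using the GB/T 17980.42-2000 method. Emulsifiable concentrates (10%) in water were applied by spraying at the 2- to 5-leaf crop stage on 20 m^2 plots, four replicates each, alongside a mesotrione 25% oil dispersion reference. Herbicidal activity was scored on 1-9 levels by weed amount relative to blank control areas.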

Barnyard grass [14] = test: Field test for weed control in a corn field; details: for Post-emergence weed control effect, Barnyard grass: 150 g a.i./ha, 30 days after treatment
Method in brief: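 Herbicidal activity against barnyard grass was assessed in corn field plots of 20 m^2, with four replicates per treatment. Compounds were applied as water-diluted 10% emulsifiable concentrates at 150 g(a.i.)/ha at the 2-5 leaf corn stage, with 25% mesotrione oil dispersion as the reference agent. Damage was scored on a 1-9 scale against untreated blank plots.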

Chenopodium album = test: Field test for weed control in a corn field; details: for Post-emergence weed control effect, Chenopodium album: 150 g a.i./ha, after treatment
Method in brief: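 Field weed-control testing in corn, run per GB/T 17980.42-2000, scored Chenopodium album on a 1-9 level scale, where each level matches a percentage range of weed remaining relative to the blank control area. Sprays of 10% emulsifiable concentrates in water delivered 150 g(a.i.)/ha at the corn 2-leaf to 5-leaf stage on 20 m^2 plots, four replicates each. Mesotrione 25% oil dispersion served as reference.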

Convolvulus arvensis = test: Field test for weed control in a corn field; details: for Post-emergence weed control effect, Convolvulus arvensis: 150 g a.i./ha, after treatment
Method in brief: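 Post-emergence herbicidal activity on Convolvulus arvensis was scored in a corn field on a 1-9 scale, based on symptoms and damage severity. Each level corresponds to the weed remaining as a percentage of the blank control area. Sprays of 10% emulsifiable concentrate at 150 g(a.i.)/ha went on at the corn 2–5 leaf stage, with four replicates of 20 m^2 per treatment.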

Digitaria sanguinalis [15] = test: Field test for weed control in a corn field; details: for Post-emergence weed control effect, Digitaria sanguinalis: 150 g a.i./ha, after treatment
Method in brief: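 Field trial in a corn field following GB/T 17980.42-2000. Test compounds were formulated as 10% emulsifiable concentrates, diluted in water and sprayed post-emergence at 150 g(a.i.)/ha when corn had 2 to 5 leaves, with 4 replicates on 20 m^2 plots. Control of Digitaria sanguinalis was scored on a 1-9 scale based on weed damage relative to the untreated blank area.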

Portulaca oleracea = test: Field test for weed control in a corn field; details: for Post-emergence weed control effect, Portulaca oleracea: 150 g a.i./ha, after treatment
Method in brief: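 Post-emergence weed control was evaluated in a corn field by the GB/T 17980.42-2000 method. Emulsifiable concentrates (10%) in water were applied as sprays at 150 g(a.i.)/ha at the 2-5 leaf corn stage, in four replicate 20 m^2 plots. A 25% mesotrione oil dispersion served as control agent. Effects were graded 1-9 relative to weed remaining in blank control areas.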

Solanum nigrum = test: Field test for weed control in a corn field; details: for Post-emergence weed control effect, Solanum nigrum: 150 g a.i./ha, 30 days after treatment
Method in brief: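 In a corn field trial based on GB/T 17980.42-2000, 10% emulsifiable concentrates diluted in water were sprayed at 150 g(a.i.)/ha at the 2 to 5 leaf stage of corn. Each treatment used 20 m^2 plots and was repeated 4 times, with 25% mesotrione oil dispersion as the reference agent. Solanum nigrum damage was scored on a 1-9 scale against blank control plots.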

goosegrass = test: Field test for weed control in a corn field; details: for Post-emergence weed control effect, Goose grass: 150 g a.i./ha, after treatment
Method in brief: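 In this field trial in corn, run per GB/T 17980.42-2000, test agents prepared as 10% emulsifiable concentrates were applied in water as sprays at 150 g(a.i.)/ha at the 2- to 5-leaf corn stage. Each treatment covered 20 m^2 and was repeated 4 times. Goosegrass control was scored 1-9 relative to weed remaining in blank control areas.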

green bristlegrass [16] = test: Field test for weed control in a corn field; details: for Post-emergence weed control effect, Green bristlegrass: 150 g a.i./ha, after treatment
Method in brief: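 Herbicidal activity against green bristlegrass was assessed in corn field plots of 20 m^2 per GB/T 17980.42-2000. Test agents, formulated as 10% emulsifiable concentrates, were applied in water at 150 g(a.i.)/ha at the corn 2 leaves to 5 leaves stage, repeated 4 times. A 25% mesotrione oil dispersion served as the control agent, and weed damage was rated on levels 1-9.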

nutgrass flatsedge = test: Field test for weed control in a corn field; details: for Post-emergence weed control effect, Nutgrass flatsedge: 150 g a.i./ha, after treatment
Method in brief: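 Herbicidal effect on nutgrass flatsedge was measured in a field planted with corn, using the GB/T 17980.42-2000 method. Emulsifiable concentrates (10%) in water were sprayed at 150 g(a.i.)/ha during the 2-leaf to 5-leaf corn stage, on 20 m^2 plots repeated 4 times. 25% mesotrione oil dispersion was the control agent. Activity was scored from 1 to 9 by weed remaining relative to blank control plots.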

[17] = 150 g(a.i.)/ha, 21 days after treatments

Compound	Herbicidal Activity Barnyard grass (Barnyard grass [1])	Herbicidal Activity Piemarker (Piemarker [2])	Herbicidal Activity Green bristlegrass (green bristlegrass [3])	Herbicidal Activity Amaranthus retroflexus (Amaranthus retroflexus [4])	Herbicidal Activity Digitaria sanguinalis (Digitaria sanguinalis [5])	Herbicidal Activity Humulus scandens (Humulus scandens [6])	Herbicidal Activity Amaranthus retroflexus (Amaranthus retroflexus [7])	Herbicidal Activity Barnyard grass (Barnyard grass [8])	Herbicidal Activity Digitaria sanguinalis (Digitaria sanguinalis [9])	Herbicidal Activity Humulus scandens (Humulus scandens [10])	Herbicidal Activity Piemarker (Piemarker [11])	Herbicidal Activity Green bristlegrass (green bristlegrass [12])	Herbicidal activity 15 days after treatment Broadleaf weed (Broadleaf weed)	Herbicidal activity 30 days after treatment Broadleaf weed (Broadleaf weed)	Herbicidal activity 15 days after treatment Cyperaceae (Cyperaceae)	Herbicidal activity 30 days after treatment Cyperaceae (Cyperaceae)	Herbicidal activity 15 days after treatment Gramineae (Gramineae)	Herbicidal activity 30 days after treatment Gramineae (Gramineae)	Post-emergence weed control effect, Acalypha australis (Acalypha australis)	Post-emergence weed control effect, Amaranthus retroflexus (Amaranthus retroflexus [13])	other results
Cc1cccc(C(=O)NCc2cc(F)cc(Cl)c2)n1 [Compound B27]	1	1	1	1	1	1	1	1	1	1	1	1	1	1	1	1	1	1	1	1	controlling effect on Acalypha australis (Acalypha australis; [17]): 1; controlling effect on Amaranthus retroflexus (Amaranthus retroflexus [13]; [17]): 1; Post-emergence weed control effect, Barnyard grass (Barnyard grass [14]): 1; controlling effect on barnyard grass (Barnyard grass [14]; [17]): 1; Post-emergence weed control effect, Chenopodium album (Chenopodium album): 1; controlling effect on Chenopodium album (Chenopodium album; [17]): 1; Post-emergence weed control effect, Convolvulus arvensis (Convolvulus arvensis): 1; controlling effect on Convolvulus arvensis (Convolvulus arvensis; [17]): 1; Post-emergence weed control effect, Digitaria sanguinalis (Digitaria sanguinalis [15]): 1; controlling effect on Digitaria sanguinalis (Digitaria sanguinalis [15]; [17]): 1; Post-emergence weed control effect, Portulaca oleracea (Portulaca oleracea): 1; controlling effect on Portulaca oleracea (Portulaca oleracea; [17]): 1; Post-emergence weed control effect, Solanum nigrum (Solanum nigrum): 1; controlling effect on Solanum nigrum (Solanum nigrum; [17]): 1; Post-emergence weed control effect, Goose grass (goosegrass): 1; controlling effect on goosegrass (goosegrass; [17]): 1; Post-emergence weed control effect, Green bristlegrass (green bristlegrass [16]): 1; controlling effect on green bristlegrass (green bristlegrass [16]; [17]): 1; Post-emergence weed control effect, Nutgrass flatsedge (nutgrass flatsedge): 1; controlling effect on nutgrass flatsedge (nutgrass flatsedge; [17]): 1
Cc1cccc(C(=O)NCc2cccc(F)c2)c1 [Compound B01]	2 (equivalent to 0 to 2.5% of the weed in the blank control area)	2 (equivalent to 0 to 2.5% of the weed in the blank control area)	1	1	1	2 (equivalent to 0 to 2.5% of the weed in the blank control area)	1	2 (equivalent to 0 to 2.5% of the weed in the blank control area)	1	1	1	1	1	2 (equivalent to 0 to 2.5% of the weed in the blank control area)	2 (equivalent to 0 to 2.5% of the weed in the blank control area)	2 (equivalent to 0 to 2.5% of the weed in the blank control area)	2 (equivalent to 0 to 2.5% of the weed in the blank control area)	2 (equivalent to 0 to 2.5% of the weed in the blank control area)	2 (equivalent to 0 to 2.5% of the weed in the blank control area)	1	Post-emergence weed control effect, Barnyard grass (Barnyard grass [14]): 1; Post-emergence weed control effect, Chenopodium album (Chenopodium album): 1; Post-emergence weed control effect, Convolvulus arvensis (Convolvulus arvensis): 2 (equivalent to 0 to 2.5% of the weed in the blank control area); Post-emergence weed control effect, Digitaria sanguinalis (Digitaria sanguinalis [15]): 1; Post-emergence weed control effect, Portulaca oleracea (Portulaca oleracea): 1; Post-emergence weed control effect, Solanum nigrum (Solanum nigrum): 2 (equivalent to 0 to 2.5% of the weed in the blank control area); Post-emergence weed control effect, Goose grass (goosegrass): 1; Post-emergence weed control effect, Green bristlegrass (green bristlegrass [16]): 1; Post-emergence weed control effect, Nutgrass flatsedge (nutgrass flatsedge): 2 (equivalent to 0 to 2.5% of the weed in the blank control area)
